Here are results for 13 compounds from patent US5356790A, “Highly sensitive assay method for myo-inositol, composition for practicing same, novel myo-inositol dehydrogenase, and process for producing same” (Asahi Kasei Kogyo Kabushiki Kaisha, priority 1990, dated 1994).

Assay [1] deals with myo-inositol dehydrogenase. The following applies: enzyme produced by yeast Cryptococcus melibiosum, cited from earlier work.
Assay [2] relates to myo-inositol dehydrogenase. The assay is described as follows: Km-value measurement for substrate and coenzymes. It is filed as biochemical, Bacillus sp. No. 3. As to the method:
Km-value for myo-inositol is measured at various concentrations of myo-inositol in a reaction mixture of:
Further in the reaction mixture, 1 mM NAD is replaced by 1 mM thio-NAD (Sigma Co. ) and the Km-value for myo-inositol is measured. The result is Km-value: 10.0 mM (myo-inositol).
Km-value in the reaction of NADP and myo-inositol are measured. The results are as follows:
Km-values in the reaction of the thio-NADP and myo-inositol are as follows: […]

Assay [3] deals with myo-inositol dehydrogenase. The assay is described as follows: Substrate specificity of myo-inositol dehydrogenase. The following applies: myo-inositol = 100%. It is filed as biochemical, Bacillus sp. No. 3. As to the method: 1. Substrate specificity:
The above reaction mixture (1 ml) is incubated in a small test tube at 37° C. for 5 mins. Diluted enzyme solution (0.02 ml) is added and the mixture is stirred to initiate the reaction. After exactly 10 mins., 0.1N HCl (2.0 ml) was added and the mixture is stirred to stop the reaction. Absorption at 550 nm (A550 nm) is measured to obtain absorption A1. The assay was repeated using the above reaction mixture except that myo-inositol was not included. The mixture is also treated in the same manner as described above and its absorption Ao was measured.
(3) Calculation of enzyme activity: [formula] wherein

In assay [4] the test system is myo-inositol dehydrogenase. Briefly: Relative activity with coenzyme thio-NAD compared to NAD. It is filed as biochemical, Bacillus sp. No. 3.

“And” between values parts separate entries of the source, which are not always exact repeats. Equal entries are not always repeated. Where two headings read alike, the source gives them in different places.

With `NC(=O)c1ccc[n+]([C@@H]2O[C@H](COP(=O)([O-])OP(=O)(O)OC[C@H]3O[C@@H](n4cnc5c(N)ncnc54)[C@H](O)[C@@H]3O)[C@@H](O)[C@H]2O)c1` [NAD, nicotinamide adenine dinucleotide], the Km (commonly the concentration of substrate that gives half-maximal velocity) in assay [1] (read-out: Km value for NAD) was ~0.07 mM.
In the case of `NC(=O)c1ccc[n+]([C@@H]2O[C@H](COP(=O)([O-])OP(=O)(O)OC[C@H]3O[C@@H](n4cnc5c(N)ncnc54)[C@H](OP(=O)(O)O)[C@@H]3O)[C@@H](O)[C@H]2O)c1` [NADP, nicotinamide adenine dinucleotide phosphate], in assay [2] (reaction of NADP and myo-inositol, read-out: Km-value (NADP)), the Km is 190 µM.
In the case of `O=C(CO)[C@@H](O)[C@H](O)[C@H](O)CO` [fructose], in assay [3], the “Substrate specificity (relative activity)” value came to 0%.
Take `OC[C@H]1O[C@@H](O[C@H]2[C@H](O)[C@@H](O)C(O)O[C@@H]2CO)[C@H](O)[C@@H](O)[C@H]1O` (stereo partly drawn) [lactose]: in assay [3], the “Substrate specificity (relative activity)” value was determined as 0%.
The same measure, in the same setting: in the case of `OC[C@H]1O[C@H](O[C@H]2[C@H](O)[C@@H](O)[C@H](O)O[C@@H]2CO)[C@H](O)[C@@H](O)[C@@H]1O` [maltose] it was 0%.
On to `O[C@H]1[C@H](O)[C@@H](O)[C@H](O)[C@@H](O)[C@H]1O` [myo-inositol], for which the Michaelis constant (Km) in assay [2] (coenzyme 1 mM NAD, Tris-HCl buffer pH 8.5, read-out: Km-value (myo-inositol)) was 640 µM and ~600 µM; in assay [2] (coenzyme 1 mM thio-NAD, read-out: Km-value (myo-inositol)), 10000 µM; in assay [2] (reaction of NADP and myo-inositol, read-out: Km-value (myo-inositol)) it was 30900 µM; in assay [1] (read-out: Km value for myo-inositol), ~11 mM. For the same compound, the “Substrate specificity (relative activity)” value in assay [3] amounted to 100%.
Regarding `OC[C@H]1O[C@@](CO)(O[C@H]2O[C@H](CO)[C@@H](O)[C@H](O)[C@H]2O)[C@@H](O)[C@@H]1O` [saccharose], the “Substrate specificity (relative activity)” value in assay [3] worked out at 0%.
For `OC[C@@H](O)[C@@H](O)[C@H](O)[C@@H](O)CO` [sorbitol], in assay [3], the “Substrate specificity (relative activity)” value stood at 0%.
Consider `NC(=S)c1ccc[n+]([C@@H]2O[C@H](COP(=O)([O-])OP(=O)(O)OC[C@H]3O[C@@H](n4cnc5c(N)ncnc54)[C@H](O)[C@@H]3O)[C@@H](O)[C@H]2O)c1` [thio-NAD, thionicotinamide adenine dinucleotide], for which, in assay [2] (150 mM myo-inositol, read-out: Km-value (thio-NAD)), the Km turned out to be 170 µM. In assay [4], the “Relative activity when coenzyme thio-NAD is used, as compared to NAD” value is recorded as 10-15%.
Take `NC(=S)c1ccc[n+]([C@@H]2O[C@H](COP(=O)([O-])OP(=O)(O)OC[C@H]3O[C@@H](n4cnc5c(N)ncnc54)[C@H](OP(=O)(O)O)[C@@H]3O)[C@@H](O)[C@H]2O)c1` [thio-NADP, thionicotinamide adenine dinucleotide phosphate]: the Km in assay [2] (reaction of thio-NADP and myo-inositol, read-out: Km-value (thio-NADP)) amounted to 2540 µM.
On to galactose, for which the “Substrate specificity (relative activity)” value in assay [3] came to 0%.
The same measure, in the same setting: in the case of glucose it was 0%.
With mannose, in assay [3], the “Substrate specificity (relative activity)” value was 0%.
